In brackets after ≈: the same amount, converted by molar mass. Activity calls are given as the source filed them. The rule behind the calls is not given here.
Experiments:
[1] = target: Metabotropic glutamate receptor 4 (Homo sapiens, UniProt Q14833); assay: Positive allosteric modulation of mGlu4 receptor (unknown origin)
[2] = target: Metabotropic glutamate receptor 3 (Homo sapiens, UniProt Q14832); assay: Positive allosteric modulation of mGlu3 receptor (unknown origin)
[3] = target: Metabotropic glutamate receptor 6 (Homo sapiens, UniProt O15303); assay: Positive allosteric modulation of mGlu6 receptor (unknown origin)
Chain of Metabotropic glutamate receptor 6 (O15303 whole entry): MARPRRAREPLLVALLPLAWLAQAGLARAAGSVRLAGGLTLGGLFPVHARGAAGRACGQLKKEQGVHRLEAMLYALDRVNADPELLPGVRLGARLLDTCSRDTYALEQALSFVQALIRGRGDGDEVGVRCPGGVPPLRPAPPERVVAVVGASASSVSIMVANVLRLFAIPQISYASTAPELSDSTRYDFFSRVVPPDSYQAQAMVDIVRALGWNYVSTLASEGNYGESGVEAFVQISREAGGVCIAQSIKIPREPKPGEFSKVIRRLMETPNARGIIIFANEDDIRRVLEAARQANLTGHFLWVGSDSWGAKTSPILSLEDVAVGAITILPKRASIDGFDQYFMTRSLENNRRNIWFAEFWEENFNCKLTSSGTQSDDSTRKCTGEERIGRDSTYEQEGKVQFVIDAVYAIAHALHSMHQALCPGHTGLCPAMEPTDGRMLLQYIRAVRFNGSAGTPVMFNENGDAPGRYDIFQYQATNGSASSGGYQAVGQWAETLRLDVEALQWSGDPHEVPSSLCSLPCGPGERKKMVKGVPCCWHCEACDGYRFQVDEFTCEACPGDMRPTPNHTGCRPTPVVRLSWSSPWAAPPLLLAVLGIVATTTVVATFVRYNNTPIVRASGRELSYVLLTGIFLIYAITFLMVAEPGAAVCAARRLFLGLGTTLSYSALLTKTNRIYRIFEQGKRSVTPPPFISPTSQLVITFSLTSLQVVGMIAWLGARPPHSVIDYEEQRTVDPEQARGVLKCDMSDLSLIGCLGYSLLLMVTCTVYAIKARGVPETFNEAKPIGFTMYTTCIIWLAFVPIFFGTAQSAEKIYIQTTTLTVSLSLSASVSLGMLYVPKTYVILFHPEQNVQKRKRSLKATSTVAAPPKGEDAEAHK

[4] = target: T1, Metabotropic glutamate receptor 2 (Homo sapiens, UniProt Q14416); assay: Positive allosteric modulation of recombinant human mGlu2 receptor expressed in CHO cells assessed as potentiation of glutamate-induced effect preincubated for 5 mins followed by glutamate stimulation for 3 mins by Fluo-4AM staining-based FLIPR assay; type: cell-based
[5] = target: Metabotropic glutamate receptor 5 (Homo sapiens, UniProt P41594); assay: Positive allosteric modulation of mGlu5 receptor (unknown origin)
Chain of Metabotropic glutamate receptor 5 (P41594 whole entry): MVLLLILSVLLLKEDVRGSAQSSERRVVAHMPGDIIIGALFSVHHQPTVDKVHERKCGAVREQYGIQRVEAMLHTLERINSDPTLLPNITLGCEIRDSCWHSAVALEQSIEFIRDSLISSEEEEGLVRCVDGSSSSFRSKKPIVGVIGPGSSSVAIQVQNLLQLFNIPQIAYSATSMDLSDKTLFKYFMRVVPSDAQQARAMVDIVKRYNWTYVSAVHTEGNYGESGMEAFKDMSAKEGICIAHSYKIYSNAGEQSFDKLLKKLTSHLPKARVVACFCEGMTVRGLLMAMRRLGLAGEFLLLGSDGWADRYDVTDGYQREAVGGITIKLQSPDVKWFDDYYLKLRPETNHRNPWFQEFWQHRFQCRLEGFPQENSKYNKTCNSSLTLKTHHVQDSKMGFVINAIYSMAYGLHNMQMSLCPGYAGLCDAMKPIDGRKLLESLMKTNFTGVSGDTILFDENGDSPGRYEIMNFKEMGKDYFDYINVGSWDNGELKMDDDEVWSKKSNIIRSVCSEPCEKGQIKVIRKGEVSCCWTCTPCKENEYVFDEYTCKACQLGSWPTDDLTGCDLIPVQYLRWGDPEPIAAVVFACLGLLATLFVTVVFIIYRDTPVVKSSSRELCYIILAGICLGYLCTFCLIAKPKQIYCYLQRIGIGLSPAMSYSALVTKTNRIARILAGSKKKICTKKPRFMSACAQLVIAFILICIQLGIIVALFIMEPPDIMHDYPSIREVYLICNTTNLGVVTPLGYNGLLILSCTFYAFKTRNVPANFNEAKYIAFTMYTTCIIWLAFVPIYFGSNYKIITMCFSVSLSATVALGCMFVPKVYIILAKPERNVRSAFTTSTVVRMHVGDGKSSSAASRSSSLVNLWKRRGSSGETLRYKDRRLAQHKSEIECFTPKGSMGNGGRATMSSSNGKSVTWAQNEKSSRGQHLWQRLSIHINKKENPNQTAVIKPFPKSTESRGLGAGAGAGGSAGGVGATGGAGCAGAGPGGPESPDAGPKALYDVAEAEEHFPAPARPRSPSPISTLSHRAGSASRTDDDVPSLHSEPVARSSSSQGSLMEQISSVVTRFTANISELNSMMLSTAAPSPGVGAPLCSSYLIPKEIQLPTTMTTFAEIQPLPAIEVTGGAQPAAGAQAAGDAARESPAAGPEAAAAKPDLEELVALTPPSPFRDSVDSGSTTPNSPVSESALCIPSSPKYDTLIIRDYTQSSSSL

[6] = (§1) AUC in Wistar Hannover rat at 10 mg/kg, po administered as single dose; type: ADME, organism-based; conditions: Wistar Hannover, in vivo
[7] = Solubility of compound at pH 7; type: physicochemical; conditions: buffer
Rattus norvegicus [8] = assay: Fraction unbound adjusted clearance in Wistar Hannover rat at 2 mg/kg, iv administered as single dose; type: ADME, organism-based; conditions: in vivo
Rattus norvegicus [9] = assay: (§2) Oral bioavailability in Wistar Hannover rat at 10 mg/kg administered as single dose; type: ADME, organism-based; conditions: in vivo
[10] = Half life in Wistar Hannover rat at 2 mg/kg, iv administered as single dose; type: ADME, organism-based; conditions: in vivo
Rattus norvegicus [11] = assay: as §1; type: ADME, organism-based; conditions: in vivo
CYP3A4 [12] = target: T2, CYP3A4 (Homo sapiens, UniProt P08684); assay: Inhibition of CYP3A4 in human liver microsomes at 10 uM; type: ADME
T2 sequence (P08684 whole entry): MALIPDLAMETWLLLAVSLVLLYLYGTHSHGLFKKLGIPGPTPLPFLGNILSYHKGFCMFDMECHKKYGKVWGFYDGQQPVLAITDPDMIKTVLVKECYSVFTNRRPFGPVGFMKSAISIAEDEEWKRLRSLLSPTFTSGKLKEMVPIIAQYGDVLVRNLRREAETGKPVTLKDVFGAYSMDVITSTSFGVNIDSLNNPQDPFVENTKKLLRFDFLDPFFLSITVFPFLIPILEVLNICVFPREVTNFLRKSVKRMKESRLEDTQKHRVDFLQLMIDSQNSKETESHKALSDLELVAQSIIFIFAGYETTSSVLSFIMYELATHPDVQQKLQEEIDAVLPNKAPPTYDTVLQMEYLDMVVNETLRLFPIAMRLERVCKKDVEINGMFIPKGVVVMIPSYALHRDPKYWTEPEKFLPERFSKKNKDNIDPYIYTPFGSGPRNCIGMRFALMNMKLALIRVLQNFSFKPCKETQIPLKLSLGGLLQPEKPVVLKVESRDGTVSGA

[13] = Half life in Beagle dog at 0.5 mg/kg, iv administered as single dose; type: ADME, organism-based, Canis lupus familiaris; conditions: in vivo
[14] = Substrate activity at human P-gp assessed as apparent permeability; type: ADME
[15] = AUC in Beagle dog at 1 mg/kg, po administered as single dose; type: ADME, organism-based, Canis lupus familiaris; conditions: in vivo
P-gp [16] = assay: Substrate activity at rat P-gp assessed as efflux ratio of apparent permeability from basolateral to apical side to apical to basolateral side; type: ADME; conditions: not told
P-gp [17] = assay: Substrate activity at rat P-gp assessed as apparent permeability; type: ADME; conditions: not told
[18] = Clearance in Beagle dog at 0.5 mg/kg, iv administered as single dose; type: ADME, organism-based, Canis lupus familiaris; conditions: in vivo
[19] = Clearance in Wistar Hannover rat at 2 mg/kg, iv administered as single dose; type: ADME, organism-based; conditions: in vivo
[20] = as §2; type: ADME, organism-based; conditions: Wistar Hannover, in vivo
[21] = Oral bioavailability in Beagle dog at 1 mg/kg administered as single dose; type: ADME, organism-based, Canis lupus familiaris; conditions: in vivo
Rattus norvegicus [22] = assay: Antipsychotic activity in Sprague-Dawley rat assessed as inhibition of MK-801-induced hyperlocomotive activity at 10 mg/kg, treated for 30 mins followed by MK-801 challenge measured over 90 mins relative to vehicle control; type: functional, organism-based
[23] = Fraction unbound in Beagle dog plasma at 0.5 mg/kg, iv administered as single dose; type: ADME, organism-based, Canis lupus familiaris
Plasma = assay: Plasma concentration in Sprague-Dawley rat at 10 mg/kg, po; type: ADME, organism-based; conditions: in vivo
Canis familiaris = assay: Fraction unbound adjusted clearance in Beagle dog at 0.5 mg/kg, iv administered as single dose; type: ADME, organism-based, Canis lupus familiaris; conditions: in vivo
[24] = target: T1, Metabotropic glutamate receptor 2; assay: Agonist activity at recombinant human mGlu2 receptor expressed in CHO cells assessed as potentiation of glutamate-induced effect preincubated for 5 mins followed by glutamate stimulation for 3 mins by Fluo-4AM staining-based FLIPR assay; type: cell-based
[25] = Fraction unbound in Wistar Hannover rat plasma at 2 mg/kg, iv administered as single dose; type: ADME, organism-based
Rattus norvegicus [26] = assay: Antipsychotic activity in Sprague-Dawley rat assessed as inhibition of MK-801-induced hyperlocomotive activity at 30 mg/kg, treated for 30 mins followed by MK-801 challenge measured over 90 mins relative to vehicle control; type: functional, organism-based
[27] = Intrinsic clearance in dog liver microsomes at 10 uM incubated for 20 to 60 mins by LC-HRMS analysis in presence of NADPH/GSH; type: ADME, Canis lupus familiaris; conditions: read-out: CLH
CYP3A4 [28] = target: T2, CYP3A4; assay: (§3) Time dependent inhibition of CYP3A4 in human liver microsomes; type: ADME; conditions: human, liver microsomes
Cytochrome P450 3A4 = Cytochrome P450 3A4 (Homo sapiens, UniProt P08684); assay: as §3; type: ADME
Chain of Cytochrome P450 3A4 (P08684 whole entry): as above

[29] = target: Metabotropic glutamate receptor 2 (Rattus norvegicus, UniProt P31421); assay: Positive allosteric modulation of rat mGlu2 receptor assessed as potentiation of glutamate-induced effect by Fluo-4AM staining-based FLIPR assay
[30] = target: T1, Metabotropic glutamate receptor 2; assay: Positive allosteric modulation of recombinant human mGlu2 receptor expressed in CHO cells assessed as decrease in glutamate EC50 at 1 uM preincubated for 5 mins followed by glutamate stimulation for 3 mins by Fluo-4AM staining-based FLIPR assay relative to control; type: cell-based
Target sequence in this assay (Q14416 19-872 limits assumed): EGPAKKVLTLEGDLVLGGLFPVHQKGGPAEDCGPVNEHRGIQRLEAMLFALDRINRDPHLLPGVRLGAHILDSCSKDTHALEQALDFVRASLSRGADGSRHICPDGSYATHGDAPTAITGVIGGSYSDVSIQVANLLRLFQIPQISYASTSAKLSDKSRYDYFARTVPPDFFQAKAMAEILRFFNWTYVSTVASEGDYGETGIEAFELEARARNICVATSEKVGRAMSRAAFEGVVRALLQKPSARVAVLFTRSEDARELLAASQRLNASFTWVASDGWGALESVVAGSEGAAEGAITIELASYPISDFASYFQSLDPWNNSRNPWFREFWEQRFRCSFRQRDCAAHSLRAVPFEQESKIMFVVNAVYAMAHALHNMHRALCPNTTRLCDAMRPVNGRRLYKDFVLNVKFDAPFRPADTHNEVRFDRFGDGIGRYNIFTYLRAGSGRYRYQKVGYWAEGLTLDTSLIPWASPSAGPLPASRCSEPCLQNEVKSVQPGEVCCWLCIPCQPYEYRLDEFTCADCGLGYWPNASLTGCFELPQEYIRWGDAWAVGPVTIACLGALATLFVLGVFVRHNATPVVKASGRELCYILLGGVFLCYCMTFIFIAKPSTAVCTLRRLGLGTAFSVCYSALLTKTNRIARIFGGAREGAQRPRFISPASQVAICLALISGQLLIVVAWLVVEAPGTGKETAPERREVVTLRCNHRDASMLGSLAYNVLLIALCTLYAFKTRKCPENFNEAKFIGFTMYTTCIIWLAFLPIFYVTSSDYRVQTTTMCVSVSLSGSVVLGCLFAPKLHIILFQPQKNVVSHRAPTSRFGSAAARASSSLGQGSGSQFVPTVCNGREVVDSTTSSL

Chain of Metabotropic glutamate receptor 4 (Q14833 whole entry): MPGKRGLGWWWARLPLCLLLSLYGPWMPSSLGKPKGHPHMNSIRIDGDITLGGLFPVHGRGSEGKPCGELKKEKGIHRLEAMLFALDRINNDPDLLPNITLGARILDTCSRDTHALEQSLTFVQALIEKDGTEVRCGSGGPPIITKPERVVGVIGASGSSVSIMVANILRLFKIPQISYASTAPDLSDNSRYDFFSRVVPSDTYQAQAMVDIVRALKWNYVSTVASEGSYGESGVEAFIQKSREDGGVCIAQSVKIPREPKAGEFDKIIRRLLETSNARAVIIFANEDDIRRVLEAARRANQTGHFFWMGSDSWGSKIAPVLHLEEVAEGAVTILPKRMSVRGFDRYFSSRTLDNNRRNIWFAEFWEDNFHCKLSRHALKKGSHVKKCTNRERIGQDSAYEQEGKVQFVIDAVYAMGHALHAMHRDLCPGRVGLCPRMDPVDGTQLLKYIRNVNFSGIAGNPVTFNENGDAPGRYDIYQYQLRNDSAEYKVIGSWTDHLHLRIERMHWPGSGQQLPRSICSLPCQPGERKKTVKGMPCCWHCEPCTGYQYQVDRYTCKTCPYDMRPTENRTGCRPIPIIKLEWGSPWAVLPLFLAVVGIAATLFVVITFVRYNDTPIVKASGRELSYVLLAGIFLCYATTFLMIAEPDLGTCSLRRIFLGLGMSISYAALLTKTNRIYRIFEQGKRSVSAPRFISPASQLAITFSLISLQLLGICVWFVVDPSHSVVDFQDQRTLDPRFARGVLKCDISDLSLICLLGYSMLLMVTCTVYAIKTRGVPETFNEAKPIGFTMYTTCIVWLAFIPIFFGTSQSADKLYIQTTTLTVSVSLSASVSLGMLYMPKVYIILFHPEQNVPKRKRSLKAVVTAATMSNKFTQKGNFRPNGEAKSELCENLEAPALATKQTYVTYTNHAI

`Cn1c(=O)n(CC(C)(C)C)c2ccc(N3CCCC4CCCCC43)nc21` (mixture of isomers) gave an EC50 [1] greater than 30000 nM, an EC50 [2] greater than 30000 nM and an EC50 [3] greater than 30000 nM. For the same compound, the %max [4] was 77%, the EC50 [4] was 2200 nM and the EC50 [5] was greater than 30000 nM.

Compound `Cn1c(=O)n(CC(C)(C)C)c2ccc(N3CC4CCC3CN4c3ncccn3)nc21` (racemic) has a %max [4] of 65%, an EC50 [4] of 37 nM and an AUC [6] of 3.9 µM·h. For the same compound, the solubility [7] was 18 µM (≈ 7.34 µg/mL).

`Cn1c(=O)n(CC(C)(C)C)c2ccc(N3CC4CCC3CN4C(=O)c3cccnc3)nc21` (racemic) gave a CL free (Rattus norvegicus [8]) of 2.9 mL/min/kg, an F (Rattus norvegicus [9]) of 73% and a half-life [10] of 0.5 h. The %max [4] was 74%, the EC50 [4] was 115 nM and the AUC (Rattus norvegicus [11]) was 18 µM·h. It also gave a solubility [7] of 183 µM (≈ 79.5 µg/mL).

For `Cn1c(=O)n(CC(C)(C)C)c2ccc(C3CCN(C(=O)c4ccon4)CC3)nc21`, the inhibition at 10 µM (CYP3A4 [12]) was 7%, the %max [4] was 79% and the EC50 [4] was 531 nM.

`Cn1c(=O)n(CC(C)(C)C)c2ccc(N3CCCc4ccccc43)nc21` showed an EC50 [1] greater than 30000 nM, an EC50 [2] greater than 30000 nM and an EC50 [3] greater than 30000 nM. For the same compound, the %max [4] was 60%, the EC50 [4] was 332 nM and the EC50 [5] was greater than 30000 nM.

`Cn1c(=O)n(CC(C)(C)C)c2ccc(N3CC4CCC3CN4)nc21` (racemic) gave an EC50 [1] greater than 30000 nM, an EC50 [2] greater than 30000 nM and an EC50 [3] greater than 30000 nM. The %max [4] was 71%, the EC50 [4] was 1290 nM and the EC50 [5] was greater than 30000 nM.

In the case of `Cn1c(=O)n(CC(C)(C)C)c2ccc(N3C[C@@H]4CC[C@H]3CN4C(=O)c3ccon3)nc21`, the half-life [13] is reported as 12 h, the Activity [14] is reported as “Not Active” and the AUC [15] is reported as 1.3 µM·h. The EC50 [1] was greater than 30000 nM, the efflux ratio (P-gp [16]) was 1.5 and the Papp (P-gp [17]) was 31 ×10⁻⁶ cm/s. It also gave a CL free (Rattus norvegicus [8]) of 4.7 mL/min/kg, a clearance [18] of 7 mL/min/kg and a clearance [19] of 28 mL/min/kg. For the same compound, the inhibition at 10 µM (CYP3A4 [12]) was 73%, the bioavailability [20] was 72% and the bioavailability [21] was 24%. For the same compound, the EC50 [2] was greater than 30000 nM, the Activity (Rattus norvegicus [22]) was “Active” and the fraction unbound [23] was 0.08. It also gave a concentration (Plasma) of 3.2 µM, an EC50 [3] greater than 30000 nM and a CL free (Canis familiaris) of 0.9 mL/min/kg. The half-life [10] was 2.3 h, the %max [24] was 35% and the EC50 [24] was 668 nM. The fraction unbound [25] was 0.06, the %max [4] was 78% and the EC50 [4] was 29 nM. For the same compound, the EC50 [5] was greater than 30000 nM, the AUC [6] was 14 µM·h and the Activity (Rattus norvegicus [26]) was “Active”. It also gave a CLint scaled at 10 µM [27] of less than 55 mL/min/kg, a kinact (CYP3A4 [28]) of 0.00107 s⁻¹ and a Ki (Cytochrome P450 3A4) of 540 nM. The TDI (Cytochrome P450 3A4; human, microsomes) was “Active”, the EC50 [29] was 75 nM and the solubility [7] was 125 µM (≈ 53.1 µg/mL). For the same compound, the fold change (FC) [30] was 12.
